Experimental data as given in a compilation of properties of binary mixtures (doi:10.1007/s10953-006-9073-6).

Assay: xn = mol fraction of the nth substance listed
Settings: 298.15 K, 101 kPa

Structure (SMILES)	speed of sound (x2 = 0.2213) [m/s]	speed of sound (x2 = 0.308) [m/s]	speed of sound (x2 = 0.3852) [m/s]	speed of sound (x2 = 0.5017) [m/s]	speed of sound (x2 = 0.5976) [m/s]	speed of sound (x2 = 0.6987) [m/s]	speed of sound (x2 = 0.8012) [m/s]	speed of sound (x2 = 0.8967) [m/s]	speed of sound (x2 = 0.9504) [m/s]	speed of sound (x2 = 0.1874) [m/s]	speed of sound (x2 = 0.4815) [m/s]	speed of sound (x2 = 0.6209) [m/s]	speed of sound (x2 = 0.7217) [m/s]	speed of sound (x2 = 0.8982) [m/s]	speed of sound (x2 = 0.9373) [m/s]
CCCC[n+]1ccn(C)c1.[Cl-] + O	1838.3	1828.2	1831.3	1845	1859.6	1872.8	1881.5	1853.7	1754.7	–	–	–	–	–	–
CCCC[n+]1ccn(C)c1.[Cl-] + CCO	–	–	–	–	–	–	–	–	–	1744.8	1598.2	1515	1443	1279.1	1232.5
